# Measurements taken from ChEMBL document CHEMBL6134821, “Design, synthesis, and biological evaluation of novel BTK-targeting proteolysis targeting chimeras (PROTACs) with enhanced pharmacokinetic properties” (Eur J Med Chem, 2025).
# Activity calls are given as the source filed them. The calls are words filed in the database; no cut-off is given here.
# Key:
# [1] = biological target: T1, Protein cereblon/Tyrosine-protein kinase BTK (Homo sapiens, UniProt Q06187+Q96SW2); assay: PROTAC activity at CRBN/BTK in human JeKo-1 cells assessed as BTK degradation at 10 nM incubated for 24 hrs by Western blot analysis relative to control; type: cell-based
# Target sequence in this assay (Q06187 2-659 limits assumed): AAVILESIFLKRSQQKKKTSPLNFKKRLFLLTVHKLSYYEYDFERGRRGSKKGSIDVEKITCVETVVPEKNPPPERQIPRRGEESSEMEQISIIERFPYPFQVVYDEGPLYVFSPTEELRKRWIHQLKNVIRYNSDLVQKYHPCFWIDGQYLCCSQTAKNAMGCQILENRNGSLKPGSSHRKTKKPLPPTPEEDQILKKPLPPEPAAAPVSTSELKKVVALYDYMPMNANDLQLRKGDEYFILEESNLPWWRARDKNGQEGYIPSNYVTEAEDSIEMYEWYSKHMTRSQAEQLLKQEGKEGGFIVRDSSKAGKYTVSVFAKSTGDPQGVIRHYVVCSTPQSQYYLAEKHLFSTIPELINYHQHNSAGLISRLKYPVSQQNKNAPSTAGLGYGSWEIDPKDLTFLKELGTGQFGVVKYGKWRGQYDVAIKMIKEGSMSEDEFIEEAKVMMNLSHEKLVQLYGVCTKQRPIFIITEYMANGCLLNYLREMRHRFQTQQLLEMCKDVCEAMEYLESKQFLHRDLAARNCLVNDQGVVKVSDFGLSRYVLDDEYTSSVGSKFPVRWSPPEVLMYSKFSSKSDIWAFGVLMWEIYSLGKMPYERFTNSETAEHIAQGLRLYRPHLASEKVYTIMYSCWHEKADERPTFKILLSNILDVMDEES
# Target sequence in this assay (Q96SW2 whole entry partner): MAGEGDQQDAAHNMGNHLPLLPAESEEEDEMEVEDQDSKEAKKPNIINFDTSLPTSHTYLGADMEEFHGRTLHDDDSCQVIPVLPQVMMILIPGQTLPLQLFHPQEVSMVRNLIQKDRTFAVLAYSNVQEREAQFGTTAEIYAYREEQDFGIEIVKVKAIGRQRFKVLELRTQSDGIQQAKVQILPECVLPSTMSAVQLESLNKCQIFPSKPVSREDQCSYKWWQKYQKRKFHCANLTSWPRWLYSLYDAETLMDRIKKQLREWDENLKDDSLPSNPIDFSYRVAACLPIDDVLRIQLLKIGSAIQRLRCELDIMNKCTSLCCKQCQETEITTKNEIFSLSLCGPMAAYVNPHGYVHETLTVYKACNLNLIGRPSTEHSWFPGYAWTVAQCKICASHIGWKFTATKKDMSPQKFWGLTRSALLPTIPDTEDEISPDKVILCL
# [2] = biological target: T1, Protein cereblon/Tyrosine-protein kinase BTK; assay: PROTAC activity at CRBN/BTK in human JeKo-1 cells assessed as BTK degradation at 30 nM incubated for 24 hrs by Western blot analysis relative to control; type: cell-based
# Target sequence in this assay (Q06187 2-659 limits assumed): as the sequence (Q06187 2-659 limits assumed) above
# Target sequence in this assay (Q96SW2 whole entry partner): as the sequence (Q96SW2 whole entry partner) above
# [3] = biological target: T1, Protein cereblon/Tyrosine-protein kinase BTK; assay: PROTAC activity at CRBN/BTK in human JeKo-1 cells assessed as BTK degradation at 100 nM incubated for 24 hrs by Western blot analysis relative to control; type: cell-based
# Target sequence in this assay (Q06187 2-659 limits assumed): as the sequence (Q06187 2-659 limits assumed) above
# Target sequence in this assay (Q96SW2 whole entry partner): as the sequence (Q96SW2 whole entry partner) above
# [4] = biological target: T1, Protein cereblon/Tyrosine-protein kinase BTK; assay: PROTAC activity at CRBN/BTK in human JeKo-1 cells assessed as BTK degradation incubated for 24 hrs by Western blot analysis; type: cell-based; details: for Activity: dose 0.01-1000 nM
# [5] = Microsomal stability in human liver microsomes assessed as half life measured up to 60 mins in presence of NADPH by LC-MS/MS analysis; type: ADME, Microsome
# [6] = Microsomal stability in human liver microsomes assessed as intrinsic clearance in microsomes measured up to 60 mins in presence of NADPH by LC-MS/MS analysis; type: ADME, Microsome; details: read-out: CLH
# [7] = Microsomal stability in human liver microsomes assessed as intrinsic clearance in liver measured up to 60 mins in presence of NADPH by LC-MS/MS analysis; type: ADME, Microsome; details: read-out: CLH
# [8] = Microsomal stability in human liver microsomes assessed as compound remaining measured up to 60 mins in presence of NADPH by LC-MS/MS analysis; type: ADME, Microsome; details: read-out: Stability
# [9] = Microsomal stability in human liver microsomes assessed as compound remaining measured up to 60 mins by LC-MS/MS analysis; type: ADME, Microsome; details: read-out: Stability
# [10] = biological target: T1, Protein cereblon/Tyrosine-protein kinase BTK; assay: PROTAC activity at CRBN/BTK in human JeKo-1 cells assessed as hook effect up to 1 uM incubated for 24 hrs by Western blot analysis; type: cell-based
# Target sequence in this assay (Q06187 2-659 limits assumed): as the sequence (Q06187 2-659 limits assumed) above
# Target sequence in this assay (Q96SW2 whole entry partner): as the sequence (Q96SW2 whole entry partner) above
# [11] = biological target: T1, Protein cereblon/Tyrosine-protein kinase BTK; assay: PROTAC activity at CRBN/BTK in human JeKo-1 cells assessed as BTK degradation at 100 nM by Western blot analysis; type: cell-based; details: time 1-24 hrs
# Target sequence in this assay (Q06187 2-659 limits assumed): as the sequence (Q06187 2-659 limits assumed) above
# Target sequence in this assay (Q96SW2 whole entry partner): as the sequence (Q96SW2 whole entry partner) above
# [12] = biological target: T1, Protein cereblon/Tyrosine-protein kinase BTK; assay: PROTAC activity at CRBN/BTK in human JeKo-1 cells assessed as BTK degradation at 100 nM measured after 4 hrs by Western blot analysis relative to control; type: cell-based
# Target sequence in this assay (Q06187 2-659 limits assumed): as the sequence (Q06187 2-659 limits assumed) above
# Target sequence in this assay (Q96SW2 whole entry partner): as the sequence (Q96SW2 whole entry partner) above
# [13] = biological target: T1, Protein cereblon/Tyrosine-protein kinase BTK; assay: PROTAC activity at CRBN/BTK in human TMD8 cells assessed as BTK degradation measured after 24 hrs by Western blot analysis; type: cell-based; details: for Activity: dose 0.1-1000 nM
# [14] = system: Protein cereblon/Tyrosine-protein kinase BTK (Homo sapiens), Q06187+Q96SW2 [C481S]; assay: (§1) PROTAC activity at CRBN/BTK C481S mutant (unknown origin) expressed in human TMD8 cells assessed as BTK degradation measured after 24 hrs by Western blot analysis; type: cell-based; details: dose 0.1-1000 nM
# [15] = biological target: Protein cereblon/Tyrosine-protein kinase BTK (Homo sapiens, UniProt Q06187+Q96SW2, C481S); assay: as §1; type: cell-based
# Protein cereblon/Tyrosine-protein kinase BTK (Homo sapiens, UniProt Q06187+Q96SW2, C481S), sequence (Q06187 whole entry, looked up, stated change not applied): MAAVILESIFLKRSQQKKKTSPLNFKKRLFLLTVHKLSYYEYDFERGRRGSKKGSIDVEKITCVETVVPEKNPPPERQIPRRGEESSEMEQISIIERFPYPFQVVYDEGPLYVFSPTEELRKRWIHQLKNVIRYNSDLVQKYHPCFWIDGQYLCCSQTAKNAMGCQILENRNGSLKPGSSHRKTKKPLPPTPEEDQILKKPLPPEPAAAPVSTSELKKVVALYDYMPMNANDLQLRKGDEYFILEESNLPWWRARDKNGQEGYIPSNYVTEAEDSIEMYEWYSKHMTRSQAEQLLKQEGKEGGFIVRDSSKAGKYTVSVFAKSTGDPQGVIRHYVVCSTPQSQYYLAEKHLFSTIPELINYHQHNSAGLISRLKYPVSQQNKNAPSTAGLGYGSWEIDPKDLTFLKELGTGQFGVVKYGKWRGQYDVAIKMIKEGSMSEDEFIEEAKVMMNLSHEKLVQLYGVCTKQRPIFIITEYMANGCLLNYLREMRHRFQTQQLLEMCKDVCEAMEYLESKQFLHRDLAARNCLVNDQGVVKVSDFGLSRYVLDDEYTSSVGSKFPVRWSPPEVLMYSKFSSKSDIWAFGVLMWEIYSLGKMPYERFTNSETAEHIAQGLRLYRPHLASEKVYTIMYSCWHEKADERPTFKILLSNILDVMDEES
# Protein cereblon/Tyrosine-protein kinase BTK (Homo sapiens, UniProt Q06187+Q96SW2, C481S), sequence (Q96SW2 whole entry, looked up, stated change not applied): as the sequence (Q96SW2 whole entry partner) above
# [16] = biological target: T1, Protein cereblon/Tyrosine-protein kinase BTK; assay: PROTAC activity at CRBN/BTK in human JeKo-1 cells assessed as BTK degradation at 10 nM incubated for 24 hrs in presence of MLN-4924 by Western blot analysis; type: cell-based
# [17] = biological target: T1, Protein cereblon/Tyrosine-protein kinase BTK; assay: PROTAC activity at CRBN/BTK in human JeKo-1 cells assessed as BTK degradation at 10 nM incubated for 24 hrs in presence of bortezomib by Western blot analysis; type: cell-based
# [18] = biological target: T1, Protein cereblon/Tyrosine-protein kinase BTK; assay: PROTAC activity at CRBN/BTK in human JeKo-1 cells assessed as BTK degradation incubated for 8 hrs by Western blot analysis; type: cell-based; details: dose 0.1-1000 nM
# JeKo-1 [19] = assay: Effect on IKZF3 level in human JeKo-1 cells at 0.1 to 1000 nM incubated for 8 hrs by Western blot analysis; type: functional, cell-based; details: dose 0.1-1000 nM
# JeKo-1 [20] = assay: Effect on GSPT1 level in human JeKo-1 cells at 0.1 to 1000 nM incubated for 8 hrs by Western blot analysis; type: functional, cell-based; details: dose 0.1-1000 nM
# JeKo-1 [21] = assay: Effect on IKZF1 level in human JeKo-1 cells at 0.1 to 1000 nM incubated for 8 hrs by Western blot analysis; type: functional, cell-based; details: dose 0.1-1000 nM
# [22] = Cytotoxicity against human TMD8 cells harboring wild-type BTK assessed as inhibition of cell viability incubated for 5 days by CCK8 assay; type: functional, cell-based; details: TMD8, 120 h
# [23] = Cytotoxicity against human TMD8 cells harboring BTK C481S mutant assessed as inhibition of cell viability incubated for 5 days by CCK8 assay; type: functional, cell-based; details: TMD8, 120 h
# [24] = Toxicity in mouse at 2 mg/kg, iv measured for 0.083 to 24 hrs by LC-MS/MS analysis; type: organism-based; details: in vivo, time 0.083-24 hrs
# [25] = Drug concentration in plasma of mouse at 30 mg/kg, ip measured after 24 hrs by LC-MS/MS analysis; type: ADME, organism-based
# [26] = AUC (0 to t) in mouse at 2 mg/kg, iv measured for 0.083 to 24 hrs by LC-MS/MS analysis; type: ADME, organism-based; details: in vivo, time 0.083-24 hrs
# [27] = Cmax in mouse at 30 mg/kg, ip measured after 0.083 hrs by LC-MS/MS analysis; type: ADME, organism-based; details: in vivo
# [28] = biological target: T1, Protein cereblon/Tyrosine-protein kinase BTK; assay: PROTAC activity at CRBN/BTK in human JeKo-1 cells assessed as BTK degradation at 100 nM incubated for 4 hrs by Label-free MS proteomics analysis; type: cell-based
# JeKo-1 [29] = assay: Downregulation of CSK level in human JeKo-1 cells at 100 nM incubated for 4 hrs by Label-free MS proteomics analysis; type: functional, cell-based
# JeKo-1 [30] = assay: Downregulation of BLK level in human JeKo-1 cells at 100 nM incubated for 4 hrs by Label-free MS proteomics analysis; type: functional, cell-based
# [31] = Toxicity in mouse at 30 mg/kg, ip measured for 0.083 to 24 hrs by LC-MS/MS analysis; type: organism-based; details: in vivo, time 0.083-24 hrs
SMILES,Activity [1],Activity [2],Activity [3],DC50 [4],Activity [4],half-life [5],microsomal CLint [6],CLint scaled [7],remaining at 1 h [8],remaining at 1 h [9],Activity [10],Activity [11],Activity [12],DC50 [13],Activity [13],Activity [14],DC50 [15],Activity [16],Activity [17],Activity [18],further results
O=C1CCC(c2ccc(N3CCC(CCN4CCC(CC(=O)N[C@H]5CC[C@H](Nc6ncnc7[nH]cc(C(=O)c8ccc(Oc9ccccc9)cc8)c67)C5)CC4)CC3)cc2)C(=O)N1 (stereo partly drawn),78%,81%,85%,1.7 nM,Dose-dependent-effect,> 2.42 h,< 9.6 µL/min/mg,< 8.6 mL/min/kg,92.2%,99.8%,inactive,Time-dependent-effect; Compound Exhibited Significant Reduction At 1 Hr,100%,3.4 nM,Dose-dependent-effect,Dose-dependent-effect,5.6 nM,inactive,inactive,Dose-dependent-effect,Activity (JeKo-1 [19]): inactive; Activity (JeKo-1 [20]): inactive; Activity (JeKo-1 [21]): inactive; IC50 [22]: 24.6 nM; IC50 [23]: 26.5 nM
O=C1CCC(c2ccc(N3CCC(CCN4CCC(CC(=O)N[C@H]5CC[C@H](Nc6ncnc7[nH]cc(C(=O)c8ccc(Oc9ccccc9)cc8)c67)C5)CC4)CC3)nc2)C(=O)N1 (stereo partly drawn),89%,94%,91%,2.9 nM,Dose-dependent-effect,> 2.42 h,< 9.6 µL/min/mg,< 8.6 mL/min/kg,106%,79.3%,inactive,Time-dependent-effect; Compound Exhibited Significant Reduction At 1 Hr,100%,2.8 nM,Dose-dependent-effect,Dose-dependent-effect,4.3 nM,inactive,inactive,Dose-dependent-effect,Activity [24]: Non-toxic; concentration at 24 h [25]: > 0.1 µM; AUC(0-t) [26]: 1730 ng·h/mL; Cmax [27]: 3.67 µM; Activity (JeKo-1 [19]): inactive; Activity (JeKo-1 [20]): inactive; Activity (JeKo-1 [21]): inactive; Activity [28]: Active; Activity (JeKo-1 [29]): Active; Activity (JeKo-1 [30]): Active; IC50 [22]: 9.9 nM; IC50 [23]: 18.2 nM; Activity [31]: Non-toxic
